In ChEMBL document CHEMBL3596124, “New anti-trypanosomal active tetracyclic iridoid isolated from Morinda lucida Benth” (Bioorg Med Chem Lett, 2015):

Columns and labels:
[1] = Selectivity index, ratio of IC50 for human HCT15 cells to IC50 for Trypanosoma brucei brucei GUTat 3.1 bloodstream forms; assay type: functional, HCT-15
[2] = Selectivity index, ratio of IC50 for human HL60 cells to IC50 for Trypanosoma brucei brucei GUTat 3.1 bloodstream forms; assay type: functional, HL-60
[3] = Selectivity index, ratio of IC50 for human NB1RGB cells to IC50 for Trypanosoma brucei brucei GUTat 3.1 bloodstream forms; assay type: toxicity, cell-based; conditions: read-out: Ratio IC50
[4] = Cytotoxicity against human KATO III cells assessed as reduction in cell viability incubated for 48 hrs by MTT assay; assay type: functional, cell-based
[5] = Selectivity index, ratio of IC50 for human LoVo cells to IC50 for Trypanosoma brucei brucei GUTat 3.1 bloodstream forms; assay type: functional
[6] = system: Trypanosoma brucei brucei; test: Anti-trypanosomal activity against Trypanosoma brucei brucei GUTat 3.1 bloodstream forms assessed as reduction in parasitemia incubated for 48 hrs by alamar blue assay; assay type: functional, organism-based; conditions: GUTat 3.1, 48 h
[7] = Selectivity index, ratio of IC50 for human Jurkat cells to IC50 for Trypanosoma brucei brucei GUTat 3.1 bloodstream forms; assay type: functional
[8] = Selectivity index, ratio of IC50 for human U937 cells to IC50 for Trypanosoma brucei brucei GUTat 3.1 bloodstream forms; assay type: functional, U-937
[9] = Selectivity index, ratio of IC50 for human THP1 cells to IC50 for Trypanosoma brucei brucei GUTat 3.1 bloodstream forms; assay type: functional, THP-1
HL-60 = test: Cytotoxicity against human HL60 cells assessed as reduction in cell viability incubated for 48 hrs by MTT assay; assay type: functional, cell-based; conditions: HL-60, 48 h
Jurkat = test: Cytotoxicity against human Jurkat cells assessed as reduction in cell viability incubated for 48 hrs by MTT assay; assay type: functional, cell-based
LoVo = test: Cytotoxicity against human LoVo cells assessed as reduction in cell viability incubated for 48 hrs by MTT assay; assay type: functional, cell-based
[10] = Selectivity index, ratio of IC50 for human Caco2 cells to IC50 for Trypanosoma brucei brucei GUTat 3.1 bloodstream forms; assay type: functional, Caco-2
THP-1 = test: Cytotoxicity against human THP1 cells assessed as reduction in cell viability incubated for 48 hrs by MTT assay; assay type: functional, cell-based; conditions: THP-1, 48 h
[11] = Cytotoxicity against human HF19 cells assessed as reduction in cell viability incubated for 48 hrs by MTT assay; assay type: cell-based; conditions: HF19, 48 h
Caco-2 = test: Cytotoxicity against human Caco2 cells assessed as reduction in cell viability incubated for 48 hrs by MTT assay; assay type: functional, cell-based; conditions: Caco-2, 48 h
HCT-15 = test: Cytotoxicity against human HCT15 cells assessed as reduction in cell viability incubated for 48 hrs by MTT assay; assay type: functional, cell-based; conditions: HCT-15, 48 h
[12] = Selectivity index, ratio of IC50 for human HF19 cells to IC50 for Trypanosoma brucei brucei GUTat 3.1 bloodstream forms; assay type: toxicity, cell-based; conditions: read-out: Ratio IC50
[13] = Selectivity index, ratio of IC50 for human KATO III cells to IC50 for Trypanosoma brucei brucei GUTat 3.1 bloodstream forms; assay type: functional, KATO III cell
U-937 = test: Cytotoxicity against human U937 cells assessed as reduction in cell viability incubated for 48 hrs by MTT assay; assay type: functional, cell-based; conditions: U-937, 48 h
[14] = Cytotoxicity against human NB1RGB cells assessed as reduction in cell viability incubated for 48 hrs by MTT assay; assay type: cell-based

COC(=O)C1=CO[C@@H]2O[C@H]3/C(=C\c4ccc(O)c(OC)c4)C(=O)O[C@]34C=C[C@H]1[C@H]24
Ratio IC50 [1]: 12.63 | Ratio IC50 [2]: 3.05 | selectivity ratio [3]: 4.73 | IC50 [4]: 0.21 µM | Ratio IC50 [5]: 0.09 | IC50 [6]: 1.27 µM | Ratio IC50 [7]: 1.93 | Ratio IC50 [8]: 3.21 | Ratio IC50 [9]: 5.5 | IC50 (HL-60): 3.87 µM | IC50 (Jurkat): 2.45 µM | IC50 (LoVo): 0.11 µM | Ratio IC50 [10]: 1.06 | IC50 (THP-1): 6.98 µM | IC50 [11]: 12.1 µM | IC50 (Caco-2): 1.35 µM | IC50 (HCT-15): 16 µM | selectivity ratio [12]: 9.54 | Ratio IC50 [13]: 0.17 | IC50 (U-937): 4.08 µM | IC50 [14]: 6.01 µM
